Patent US20130108573A1, “Bile Acid Recycling Inhibitors for Treatment of Hypercholemia and Cholestatic Liver Disease” (Lumena Pharmaceuticals, Inc., priority 2011, published 2013)
Marks after values point to notes of the source that are not given here.

Experiments:
[1] = system: serum bile acids; experiment: Human study of LUM001 lowering fasting and post-prandial peak serum bile acids in children and adolescents; assay type: in vivo; settings: for Fasting serum bile acid / Morning Post-prandial peak: after eight days of dosing
Method: LUM001 has been administered to forty patients under the age of 18 years old. […] The drug was administered once-a-day (QD) in the morning for fourteen days. […] These doses are similar to those using to treat patients with cholestatic diseases.
The efficacy of LUM001 was determined by measuring total serum bile acids after eight days of dosing in children and adolescents under the age of eighteen. Thirty minutes before the next drug administration, at approximately 8 am in the morning, serum bile acid levels were measured. The child had refrained from food for 12 hours prior to this sample thus providing a fasted level of serum bile acid. After breakfast, serum bile acids were measured for up to the next 4 hours (8 am to noon) and the peak serum bile acid concentration noted.

[2] = system: Dog Serum Bile Acids; experiment: Duration of action of LUM001 on dog serum bile acids, Method 1: two meals for extended SBA elevation; assay type: in vivo, beagle dogs; settings: for Serum Bile Acid, Mean: dogs n = 6, full meal at 0 hr, dosed at 1 hr, one-half meal at 4 hr
Method: (§1) LUM001 was dissolved in water at concentrations that required the administration of 0.2 ml/kg of solution. Solutions were placed into gelatin capsules, Torpac Inc., size 13 Batch 594, East Hanover N.J., and administered orally.
(§2) Male beagle dogs were obtained from Covance Research Products, Cumberland Va. or Marshall Farms USA, Inc., North Rose N.Y. A total of 20 dogs, 1 to 5 years old, 6.8 to 15.6 kg body weight, were used in these experiments. The dogs were conditioned to a 12 hour light/dark cycle and maintained on a feeding restriction of 1 hour per day access to food (Richman Standard Certified Canine Diet #5007, PMI Nutrition, Inc., St Louis Mo.) from 7 to 8 AM. They were trained to eat a special meal promptly within 20 minutes when presented (1 can. 397 g, Evanger's 100% Beef for Dogs, Evanger's Dog and Cat Food Co., Inc., Wheeling Ill., mixed with 50 g of sharp cheddar cheese.).
(§3) SBA was measured by an enzymatic assay. SBA values are expressed as μg of total bile acids/ml of serum.
(§4) In dogs a single experimental meal produces a postprandial rise in SBA that is elevated to a peak at 1 hour after feeding and constant for an additional 3 hours. Previous experiments (2) indicate that LUM001 remains active for more than 4.5 hours. To measure the duration of action of an ASBT inhibitor using postprandial SBA levels requires that in the control situation the SBA levels remain elevated and constant for the entire period of compound action, or that the compound be administered long before the postprandial rise occurs, and remain active in the empty digestive system for long periods before feeding. Accordingly, two alternative methods were used to provide a window of constant SBA elevation that could be used to measure the duration of action of ASBT inhibitors.
LUM001 was administered at 0.05 and 0.2 mg/kg, p.o. to 6 dogs 1 hr after feeding them a meal. At 4 hours after the meal was offered, a second meal of ½ the size of the first meal was offered. It too was consumed as promptly and thoroughly as the first meal, and provided an extended, constant SBA plateau. Blood samples for SBA measurement were taken at 0, 1, 1.5, 2, 4, 4.5, 5, 5.5, 6, 6.5, 7, 7.5 and 8 hours from the time of offering the first meal. Mean SBA levels were compared to the mean SBA level at 1 hour, each dog serving as its own control.

[3] = system: Dog Serum Bile Acids; experiment: Duration of action of LUM001 on dog serum bile acids, Method 2: one meal, extended interval between dosing and feeding; assay type: in vivo, beagle dogs; settings: feeding time 2 hr
[4] = system: Dog Serum Bile Acids; experiment: as above; assay type: in vivo, beagle dogs; settings: for Serum Bile Acid, Mean: dogs n = 6, 0.2 mg/kg p.o., dosing time 0 hr, feeding time 2 hr
Method: as §1, §2, §3, §4
Alternatively, 6 dogs were dosed with water or LUM001, at 0.05 mg/kg, p.o. at 1.5 hours prior to being fed, or 0.05, or 0.2 mg/kg, at 2 hours prior to feeding. This moved the elevated SBA plateau out in time from the dose point. Blood samples for SBA measurement were taken immediately before dosing (0 or 0.5 hr), at feeding (2 hr), 2.5, 3, 4 and 5 hours after feeding. This allowed detection of activity out to 5.5 and 6 hours after dosing without feeding the dogs a second time. Mean SBA levels were compared to the corresponding mean SBA levels in water treated controls.

[5] = system: Dog Serum Bile Acids; settings: dogs; previous experiments (2); cited from earlier work
[6] = patient 401, drug dose 2.5 mg QD

With CCCCC1(CCCC)CS(=O)(=O)c2ccc(N(C)C)cc2[C@@H](c2ccc(OCc3ccc(C[N+]45CCN(CC4)CC5)cc3)cc2)[C@H]1O [LUM001] the “Decrease of average fasting serum bile acid level vs placebo patients” value ([1]; LUM001 1-5 mg QD) was 24%, the “Decrease of average post-prandial peak serum bile acid level vs placebo patients” value ([1]; LUM001 1-5 mg QD) was 23% and the “Average fasting serum bile acid level of LUM001 treated patients” value ([1]; LUM001 1-5 mg QD, placebo patients 8.6 μmol/L) was 6.5 µmol/L. For the same molecule, the “Average post-prandial peak serum bile acid level of LUM001 treated patients” value ([1]; LUM001 1-5 mg QD, placebo patients 11.9 μmol/L) was 9.2 µmol/L, the “Fasting serum bile acid” value ([1]; patient 304, drug dose 1 mg QD) was 5.6 µmol/L and the “Morning Post-prandial peak” value ([1]; patient 304, drug dose 1 mg QD) was 8.4 µmol/L. The “Fasting serum bile acid” value ([1]; patient 308, drug dose 1 mg QD) was 6.8 µmol/L, the “Morning Post-prandial peak” value ([1]; patient 308, drug dose 1 mg QD) was 9.3 µmol/L and the “Fasting serum bile acid” value ([1]; patient 309, drug dose 1 mg QD) was 6.9 µmol/L. The “Morning Post-prandial peak” value ([1]; patient 309, drug dose 1 mg QD) was 10.0 µmol/L, the “Fasting serum bile acid” value [1, 6] was 6.0 µmol/L and the “Morning Post-prandial peak” value [1, 6] was 6.8 µmol/L. For the same molecule, the “Fasting serum bile acid” value ([1]; patient 510, drug dose 5 mg QD) was 7.4 µmol/L, the “Morning Post-prandial peak” value ([1]; patient 510, drug dose 5 mg QD) was 11.3 µmol/L and the “Serum Bile Acid, Mean” value ([2]; 0.05 mg/kg p.o., time 0 hr) was 1.4 µg/mL. The “Serum Bile Acid, Mean” value ([2]; 0.05 mg/kg p.o., time 1 hr) was 9.2 µg/mL, the “Serum Bile Acid, Mean” value ([2]; 0.05 mg/kg p.o., time 1.5 hr) was 9.6 µg/mL and the “Serum Bile Acid, Mean” value ([2]; 0.05 mg/kg p.o., time 2 hr) was 6.7 µg/mL. The “Serum Bile Acid, Mean” value ([2]; 0.05 mg/kg p.o., time 4 hr) was 5.1* μg/ml, the “Serum Bile Acid, Mean” value ([2]; 0.05 mg/kg p.o., time 4.5 hr) was 6.4 µg/mL and the “Serum Bile Acid, Mean” value ([2]; 0.05 mg/kg p.o., time 5 hr) was 7.0 µg/mL. For the same molecule, the “Serum Bile Acid, Mean” value ([2]; 0.05 mg/kg p.o., time 6 hr) was 7.0 µg/mL, the “Serum Bile Acid, Mean” value ([2]; 0.05 mg/kg p.o., time 7 hr) was 7.4 µg/mL and the “Serum Bile Acid, Mean” value ([2]; 0.05 mg/kg p.o., time 8 hr) was 6.5 µg/mL. The “Serum Bile Acid, Mean” value ([2]; 0.2 mg/kg p.o., time 0 hr) was 1.3 µg/mL, the “Serum Bile Acid, Mean” value ([2]; 0.2 mg/kg p.o., time 1 hr) was 11.1 µg/mL and the “Serum Bile Acid, Mean” value ([2]; 0.2 mg/kg p.o., time 1.5 hr) was 9.1 µg/mL. The “Serum Bile Acid, Mean” value ([2]; 0.2 mg/kg p.o., time 2 hr) was 3.8* μg/ml, the “Serum Bile Acid, Mean” value ([2]; 0.2 mg/kg p.o., time 4 hr) was 2.5* μg/ml and the “Serum Bile Acid, Mean” value ([2]; 0.2 mg/kg p.o., time 4.5 hr) was 3.3* μg/ml. The “Serum Bile Acid, Mean” value ([2]; 0.2 mg/kg p.o., time 5 hr) was 3.1* μg/ml, the “Serum Bile Acid, Mean” value ([2]; 0.2 mg/kg p.o., time 6 hr) was 3.6* μg/ml and the “Serum Bile Acid, Mean” value ([2]; 0.2 mg/kg p.o., time 7 hr) was 3.9* μg/ml. The “Serum Bile Acid, Mean” value ([2]; 0.2 mg/kg p.o., time 8 hr) was 5.8* μg/ml, the “Time after dosing beyond which the significant SBA decrease was not sustained” value ([2]; dogs, 0.05 mg/kg orally 1 hour after feeding) was no more than 3 h and the “Time serum bile acid levels remained significantly lowered” value ([2]; dogs, 0.2 mg/kg orally 1 hour after feeding) was “at least 6 hours”. For the same molecule, the “Serum Bile Acid, Mean” value ([3]; dogs n = 6, 0.2 mg/kg p.o., dosing time 0 hr, time 3 hr) was 4.1* μg/ml, the “Serum Bile Acid, Mean” value ([3]; dogs n = 6, 0.2 mg/kg p.o., dosing time 0 hr, time 4 hr) was 6.5* μg/ml and the “Serum Bile Acid, Mean” value ([3]; dogs n = 9, 0.05 mg/kg p.o., dosing time 0 hr, time 0 hr) was 1.7 µg/mL. For the same molecule, the “Serum Bile Acid, Mean” value ([3]; dogs n = 9, 0.05 mg/kg p.o., dosing time 0 hr, time 2 hr) was 2.0 µg/mL, the “Serum Bile Acid, Mean” value ([3]; dogs n = 9, 0.05 mg/kg p.o., dosing time 0 hr, time 3 hr) was 9.0* μg/ml and the “Serum Bile Acid, Mean” value ([3]; dogs n = 9, 0.05 mg/kg p.o., dosing time 0 hr, time 4 hr) was 10.8 µg/mL. The “Serum Bile Acid, Mean” value ([3]; dogs n = 9, 0.05 mg/kg p.o., dosing time 0 hr, time 5 hr) was 10.6 µg/mL, the “Serum Bile Acid, Mean” value ([3]; dogs n = 9, 0.05 mg/kg p.o., dosing time 0.5 hr, time 0.5 hr) was 1.8 µg/mL and the “Serum Bile Acid, Mean” value ([3]; dogs n = 9, 0.05 mg/kg p.o., dosing time 0.5 hr, time 2 hr) was 1.7 µg/mL. The “Serum Bile Acid, Mean” value ([3]; dogs n = 9, 0.05 mg/kg p.o., dosing time 0.5 hr, time 2.5 hr) was 2.5 µg/mL, the “Serum Bile Acid, Mean” value ([3]; dogs n = 9, 0.05 mg/kg p.o., dosing time 0.5 hr, time 3 hr) was 9.7 µg/mL and the “Serum Bile Acid, Mean” value ([3]; dogs n = 9, 0.05 mg/kg p.o., dosing time 0.5 hr, time 4 hr) was 12.4 µg/mL. For the same molecule, the “Serum Bile Acid, Mean” value ([3]; dogs n = 9, 0.05 mg/kg p.o., dosing time 0.5 hr, time 5 hr) was 11.6 µg/mL, the “Serum Bile Acid, Mean” value ([4]; time 0 hr) was 1.3 µg/mL and the “Serum Bile Acid, Mean” value ([4]; time 2 hr) was 1.7 µg/mL. The “Serum Bile Acid, Mean” value ([4]; time 5 hr) was 7.9* μg/ml, the “Time after feeding for which a significant SBA effect was sustained” value ([4]; dogs, 0.2 mg/kg administered 2 hours prior to feeding) was 2 to 3 h and the “Time LUM001 remains active” value [5] was “more than 4.5 hours”.
